Patent publication US10913734B2, “Substituted aminothiazoles” (BARUCH S. BLUMBERG INSTITUTE, priority 2016, dated 2021)

Experiments:
[1] = MTT cell viability / cytotoxicity assay (CC50), 72 hours; format: cell-based; details: human, 72 hours incubation, concentration that reduces signal of viable cells by 50%, table title names Huh-7, THLE2 and PH5CH cells, cell line not given
From the text: (§1) Huh-7 cells and derived from hepatocellular carcinoma cells, and were donated by Dr. Xuanyong Lu, (Drexel University College of Medicine, Doylestown, Pa.). THLE-2 were purchased from American Type Culture Collection (Manassas, Va.). PH5CH were donated by Dr. Masayuki Noguchi (University of Tsukuba, Ibaraki, Japan). THLE-2 and PH5CH have been immortalized through stable transfection of the SV40 large T antigen in normal hepatocytes, and are thus cell lines that are representative of normal hepatocytes rather than HCC cells. […] All cell lines were cultured and maintained in 5% CO2 at 37° C. Huh-7 were maintained in the culture media DMEM/F12 (Dulbecco's Modified Eagle Medium) with 10% Fetal bovine serum (FBS), 100 µg/mL penicillin, 100 units/mL streptomycin, and 50 µg/mL normocin. THLE-2 and PH5CH were maintained in the culture media Brochial Epithelial Growth Media (BEGM) with 10% FBS, 100 µg/mL penicillin, 100 units/mL streptomycin, with the following additives form the prepackaged kit: Bovine pituitary extract (BPE), insulin, hydrocortisone, retinoic acid, transferrin, triiodothyronine, supplemented with 5 ng/ml human epidermal growth factor and 70 ng/ml phosphoethanolamine (Lonza Walkersville Inc., Walkersville, Md.).
(§2) Huh7 cells were plated on 96-well plates at 2.0×10^4 cells per well to permit grow in the presence of compounds of the disclosure. Compounds of the disclosure were prediluted and transferred to cell plates by automated liquid handling. Cells were incubated with compounds of the disclosure for 72 hours, after which culture growth and viability were assessed by addition of 50 µg/mL 3-(4,5-Dimethyl-2-thiazolyl)-2,5-diphenyl-2H-tetrazolium bromide (MTT) incubation for 4 hours at 37° C. Solubilization buffer (0.01M HCl, 10% SDS) was added followed by incubation at 37° C. overnight. Absorbance was measured at 570 nm (reference 630 nm). Compound of the disclosure were tested in Huh7, THLE-2 and PH5CH, over eight-point dilutions in half-log steps, testing 50.0, 16.6, 5.0, 1.66, 0.5, 0.166, 0.05, and 0.016 µM in 0.5% DMSO, with each concentration in duplicate wells. […] Each compound was tested from 2 to 7 times in separate assay trials.

[2] = test system: THLE2 and/or PH5CH (normal hepatocyte-derived) cell versus Huh7; test: Selectivity of cytotoxicity: CC50 in normal hepatocyte-derived cells versus liver cancer derived cells (MTT assay); format: cell-based; details: ratio of CC50 between Huh7 and THLE2 and/or PH5CH (normal hepatocyte-derived) cell
From the text: as §1
as §2, with “nm).” for “nm). Compound of the disclosure were tested in Huh7, THLE-2 and PH5CH, over eight-point dilutions in half-log steps, testing 50.0, 16.6, 5.0, 1.66, 0.5, 0.166, 0.05, and 0.016 µM in 0.5% DMSO, with each concentration in duplicate wells.”
Selectivity of toxicity in HCC-derived cells over normal liver-derived cells is important for the purposes of developing a therapy that specifically targets the cancer with low toxcity for the […]. The Selective Index (SI) is the ratio of CC50 in normal cells (THLE2 or PHSCH) over the CC50 in the liver cancer derived cells; thus, the higher the number, the lower the potential toxicity at an efficacious dose.
Selectivity in table 6 is defined as the ratio of CC50 between Huh7 and THLE2 and/or PH5CH (normal hepatocyte-derived) cell.

**Q.** Which results are given for `CCOC(=O)CCc1sc(NCc2ncccn2)nc1-c1ccccn1` [Entry 10]?
**A.** CC50 at 72 h [1]: ≥ 50 µM; Selectivity [2]: ≤5.0

**Q.** What does the source list for `CCOC(=O)c1sc(NCc2ncccn2)nc1-c1ccccn1` [Entry 17]?
**A.** CC50 at 72 h [1]: ≥ 50 µM; Selectivity [2]: ≤5.0

**Q.** With `CC(C)OC(=O)c1sc(N(COP(=O)(OC(C)(C)C)OC(C)(C)C)c2ncccn2)nc1-c1ccccn1` [Entry 27] as the compound, how does the CC50 at 72 h [1] read?
**A.** < 50 µM

**Q.** What about the Selectivity [2] of the same compound?
**A.** >5.0

**Q.** For `CC(C)OC(=O)c1sc(Nc2ncccn2)nc1-c1cnccn1` [Entry 25], which CC50 at 72 h [1] is on record?
**A.** < 50 µM

**Q.** And the Selectivity [2]?
**A.** >5.0

**Q.** What does the source list for `CC(C)OC(=O)c1sc(Nc2ncccn2)nc1-c1ccccn1` [Entry 21]?
**A.** CC50 at 72 h [1]: < 50 µM; Selectivity [2]: >5.0

**Q.** Which results are given for `CC(C)OC(=O)C1=C(c2ccncn2)NC(Nc2ncccn2)S1` (stereo not drawn) [Entry 22]?
**A.** CC50 at 72 h [1]: < 50 µM; Selectivity [2]: >5.0

**Q.** What does the source list for `CCOCc1sc(NCc2ncccn2)nc1-c1ccccn1` [Entry 8]?
**A.** CC50 at 72 h [1]: ≥ 50 µM; Selectivity [2]: ≤5.0

**Q.** Which CC50 at 72 h [1] does the source give for `COCCOCN(c1ncccn1)c1nc(-c2cnccn2)c(C(=O)OC(C)C)s1` [Entry 29] here?
**A.** ≥ 50 µM

**Q.** What about the Selectivity [2] of the same compound?
**A.** ≤5.0

**Q.** With `c1ccc(-c2csc(NCc3ncccn3)n2)nc1` [Entry 2] as the compound, how does the CC50 at 72 h [1] read?
**A.** < 50 µM

**Q.** And the Selectivity [2]?
**A.** ≤5.0

**Q.** With `O=C([O-])CCc1sc(Nc2ncccn2)nc1-c1ccccn1.[Na+]` [Entry 12] as the compound, how does the Selectivity [2] read?
**A.** ≤5.0

**Q.** For `O=C(O)CCc1sc(Nc2ncccn2)nc1-c1ccccn1` [Entry 11], which CC50 at 72 h [1] is on record?
**A.** < 50 µM

**Q.** What about the Selectivity [2] of the same compound?
**A.** ≤5.0

**Q.** What does the source list for `O=C(Nc1ncccn1)Nc1nc(-c2ccccn2)cs1` [Entry 3]?
**A.** CC50 at 72 h [1]: ≥ 50 µM; Selectivity [2]: ≤5.0

**Q.** With `CCOC(=O)Cc1sc(Nc2ncccn2)nc1-c1ccccn1` [Entry 15] as the compound, how does the CC50 at 72 h [1] read?
**A.** < 50 µM

**Q.** What about the Selectivity [2] of the same compound?
**A.** >5.0

**Q.** Which CC50 at 72 h [1] does the source give for `CC(C)OC(=O)c1sc(N(COP(=O)(OC(C)(C)C)OC(C)(C)C)c2ncccn2)nc1-c1cnccn1` [Entry 28] here?
**A.** < 50 µM

**Q.** What about the Selectivity [2] of the same compound?
**A.** >5.0

**Q.** Which CC50 at 72 h [1] does the source give for `CCOCc1sc(Nc2ncccn2)nc1-c1ccccn1` [Entry 6] here?
**A.** < 50 µM

**Q.** And the Selectivity [2]?
**A.** >5.0

**Q.** With `O=C([O-])CCc1sc(NCc2ncccn2)nc1-c1ccccn1.[Na+]` [Entry 14] as the compound, how does the Selectivity [2] read?
**A.** ≤5.0

**Q.** Which results are given for `CCOC(=O)c1sc(Nc2ncccn2)nc1-c1cc(C(F)(F)F)ccn1` [Entry 24]?
**A.** CC50 at 72 h [1]: < 50 µM; Selectivity [2]: >5.0

**Q.** For `CCOC(=O)c1sc(Nc2nccc(C)n2)nc1-c1ncccc1C` [Entry 4], which CC50 at 72 h [1] is on record?
**A.** ≥ 50 µM

**Q.** What about the Selectivity [2] of the same compound?
**A.** ≤5.0

**Q.** Which CC50 at 72 h [1] does the source give for `CCOC(=O)Cc1sc(NCc2ncccn2)nc1-c1ccccn1` [Entry 16] here?
**A.** < 50 µM

**Q.** And the Selectivity [2]?
**A.** ≤5.0

**Q.** For `CCOCc1sc(Nc2nccc(C)n2)nc1-c1ccccn1` [Entry 7], which CC50 at 72 h [1] is on record?
**A.** < 50 µM

**Q.** What about the Selectivity [2] of the same compound?
**A.** ≤5.0

**Q.** Which CC50 at 72 h [1] does the source give for `CCOC(=O)CCc1sc(Nc2ncccn2)nc1-c1ccccn1` [Entry 9] here?
**A.** < 50 µM

**Q.** What about the Selectivity [2] of the same compound?
**A.** >5.0

**Q.** For `CCOC(=O)Cc1sc(Nc2nccc(C)n2)nc1-c1ccccn1` [Entry 18], which CC50 at 72 h [1] is on record?
**A.** < 50 µM

**Q.** What about the Selectivity [2] of the same compound?
**A.** ≤5.0

**Q.** Which results are given for `O=C(O)CCc1sc(NCc2ncccn2)nc1-c1ccccn1` [Entry 13]?
**A.** CC50 at 72 h [1]: ≥ 50 µM; Selectivity [2]: ≤5.0

**Q.** With `CC(C)OC(=O)c1sc(Nc2ncccn2)nc1-c1ncccn1` [Entry 19] as the compound, how does the CC50 at 72 h [1] read?
**A.** < 50 µM

**Q.** What about the Selectivity [2] of the same compound?
**A.** >5.0

**Q.** Which CC50 at 72 h [1] does the source give for `CC(C)OC(=O)OCN(c1ncccn1)c1nc(-c2cnccn2)c(C(=O)OC(C)C)s1` [Entry 26] here?
**A.** < 50 µM

**Q.** And the Selectivity [2]?
**A.** >5.0

**Q.** Which CC50 at 72 h [1] does the source give for `CCOC(=O)c1sc(NCc2ncccn2)nc1-c1ncccc1C` [Entry 5] here?
**A.** ≥ 50 µM

**Q.** And the Selectivity [2]?
**A.** ≤5.0

**Q.** Which CC50 at 72 h [1] does the source give for `CCOC(=O)c1sc(Nc2ncccn2)nc1-c1ccncn1` [Entry 23] here?
**A.** < 50 µM

**Q.** What about the Selectivity [2] of the same compound?
**A.** >5.0

**Q.** For `CCOC(=O)c1sc(Nc2ncccn2)nc1-c1cnccn1` [Entry 20], which CC50 at 72 h [1] is on record?
**A.** < 50 µM

**Q.** And the Selectivity [2]?
**A.** >5.0
